Experimental data: publication PMC3977535, “Design and Synthesis of New Dual Binding Site Cholinesterase Inhibitors: in vitro Inhibition Studies with in silico Docking” (Letters in Drug Design & Discovery, 2014)
Where two headings read alike, the source gives them in different places.

Assays:
AChE = target: T1, AChE (Homo sapiens, UniProt P22303); test: biochemical; type: biochemical; conditions: for inhibition at 500 µM: read-out: AChE Inhibition, Inhibition (%) at 0.5 mM
T1 construct: purchased Sigma Inc
T1 sequence (P22303 32-614): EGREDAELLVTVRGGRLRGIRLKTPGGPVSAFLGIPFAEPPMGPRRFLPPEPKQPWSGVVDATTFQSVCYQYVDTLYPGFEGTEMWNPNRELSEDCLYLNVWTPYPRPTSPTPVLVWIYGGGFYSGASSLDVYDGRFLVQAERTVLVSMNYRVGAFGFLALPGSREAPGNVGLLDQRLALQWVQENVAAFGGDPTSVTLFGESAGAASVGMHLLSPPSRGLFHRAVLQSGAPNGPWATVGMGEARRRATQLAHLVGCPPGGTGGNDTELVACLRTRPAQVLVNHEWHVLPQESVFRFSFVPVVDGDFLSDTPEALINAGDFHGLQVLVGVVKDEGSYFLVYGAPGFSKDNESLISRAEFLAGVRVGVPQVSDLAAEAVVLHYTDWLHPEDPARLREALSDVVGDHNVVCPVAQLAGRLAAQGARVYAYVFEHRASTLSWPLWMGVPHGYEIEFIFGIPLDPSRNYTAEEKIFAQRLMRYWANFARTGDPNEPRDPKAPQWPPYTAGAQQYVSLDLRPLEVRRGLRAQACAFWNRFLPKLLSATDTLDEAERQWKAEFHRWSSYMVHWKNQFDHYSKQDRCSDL
Experimental: (§1) The AChE and BChE inhibition activity was performed according to the method of Ellman with slight modifications. Total volume of the reaction mixture was 100 µL contained 60 µL Na2HPO4 buffer with concentration of 50 mM and pH 7.7. A 10 µL test compound (0.5 mM per well) was added, followed by the addition of 10 µL enzyme (0.005 unit AChE, 0.5 unit BChE per well, Sigma Inc). […] The reaction was initiated by the addition of 10 µL of 0.5 mM per well substrate (acetylthiocholine iodide or butyrylthiocholine bromide), followed by the addition of 10 µL DTNB (0.5 mM per well). […] Synergy HT (BioTek, USA) 96-well plate reader was used in all experiments. All experiments were carried out with their respective controls in triplicate. […] The percent inhibition was calculated by the help of following equation.
(§2) Inhibition%=Control−Test/Control×100

BChE = target: T2, BChE (Homo sapiens, UniProt P06276); test: BChE inhibition assay (Ellman method with slight modifications); type: biochemical; conditions: for inhibition at 500 µM: read-out: BChE Inhibition, Inhibition (%) at 0.5 mM
T2 construct: purchased Sigma Inc
T2 sequence (P06276 29-602): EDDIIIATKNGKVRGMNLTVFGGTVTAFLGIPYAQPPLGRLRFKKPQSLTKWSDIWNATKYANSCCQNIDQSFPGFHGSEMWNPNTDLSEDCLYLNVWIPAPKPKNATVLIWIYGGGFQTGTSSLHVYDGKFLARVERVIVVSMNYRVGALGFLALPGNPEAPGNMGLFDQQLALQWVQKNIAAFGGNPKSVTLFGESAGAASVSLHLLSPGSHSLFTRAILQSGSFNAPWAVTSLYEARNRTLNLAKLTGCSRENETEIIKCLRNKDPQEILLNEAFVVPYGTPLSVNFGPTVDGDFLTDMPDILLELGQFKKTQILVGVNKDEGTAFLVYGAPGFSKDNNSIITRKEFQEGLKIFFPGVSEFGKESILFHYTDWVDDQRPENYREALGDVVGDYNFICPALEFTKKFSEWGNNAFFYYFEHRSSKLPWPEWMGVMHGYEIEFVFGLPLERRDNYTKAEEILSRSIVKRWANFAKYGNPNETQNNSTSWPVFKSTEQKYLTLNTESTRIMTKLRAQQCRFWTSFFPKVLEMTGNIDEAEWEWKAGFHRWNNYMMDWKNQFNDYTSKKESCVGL
Experimental: as §1, §2

[1] = 0.5 mM test compound, mean with SEM
[2] = mean with SEM, read-out: AChE Inhibition, IC50
[3] = mean with SEM, read-out: BChE Inhibition, IC50

COC(=O)Cc1c[nH]c2ccccc12 [Compound 2]
inhibition at 500 µM (AChE; [1]): 70.61 ± 0.34%
IC50 (AChE; [2]): 138.5 ± 0.21 µM
inhibition at 500 µM (BChE; [1]): 59.82 ± 0.15%
IC50 (BChE; [3]): 184.2 ± 0.21 µM

NNC(=O)Cc1c[nH]c2ccccc12 [Compound 3]
IC50 (AChE): 152.11 ± 0.07 µM
inhibition at 500 µM (AChE): 69.16 ± 0.25%
IC50 (BChE): 139.21 ± 0.07 µM
inhibition at 500 µM (BChE): 73.95 ± 0.67%

O=C(Cc1c[nH]c2ccccc12)N/N=C/c1ccccc1 [Compound 4a]
inhibition at 500 µM (AChE; [1]): 63.11 ± 0.52%
IC50 (AChE; [2]): 198.61 ± 0.14 µM
inhibition at 500 µM (BChE; [1]): 79.58 ± 0.42%
IC50 (BChE; [3]): 86.31 ± 0.14 µM

O=C(Cc1c[nH]c2ccccc12)N/N=C/c1ccccc1O [Compound 4b]
inhibition at 500 µM (AChE; [1]): 75.5 ± 0.33%
IC50 (AChE; [2]): 103.11 ± 0.05 µM
inhibitory activity against BChE (in words) (BChE): weak
inhibition at 500 µM (BChE; [1]): 43.16 ± 0.18%

COc1ccc(/C=N/NC(=O)Cc2c[nH]c3ccccc23)cc1 [Compound 4c]
inhibition at 500 µM (AChE; [1]): 75.5 ± 0.56%
IC50 (AChE; [2]): 109.6 ± 0.11 µM
inhibition at 500 µM (BChE; [1]): 50.2 ± 0.69%

Cc1ccc(/C=N/NC(=O)Cc2c[nH]c3ccccc23)cc1 [Compound 4d]
inhibition at 500 µM (AChE; [1]): 79.54 ± 0.54%
IC50 (AChE; [2]): 98.81 ± 0.14 µM
inhibitory activity against BChE (in words) (BChE): weak
inhibition at 500 µM (BChE; [1]): 43.6 ± 0.55%

C/C(=N\NC(=O)Cc1c[nH]c2ccccc12)c1ccccc1 [Compound 4e]
inhibition at 500 µM (AChE; [1]): 66.86 ± 0.36%
IC50 (AChE; [2]): 174.51 ± 0.11 µM
inhibition at 500 µM (BChE; [1]): 68.43 ± 0.18%
IC50 (BChE; [3]): 146.21 ± 0.08 µM

O=C(Cc1c[nH]c2ccccc12)NN=C(c1ccccc1)c1ccccc1 [Compound 4f]
inhibition at 500 µM (AChE; [1]): 89.3 ± 0.91%
IC50 (AChE; [2]): 91.21 ± 0.06 µM
inhibition at 500 µM (BChE; [1]): 89.51 ± 0.69%
IC50 (BChE; [3]): 59.81 ± 0.06 µM

O=C(Cc1c[nH]c2ccccc12)N/N=C/c1ccc(Cl)cc1 [Compound 4g]
inhibition at 500 µM (AChE; [1]): 75.79 ± 0.25%
IC50 (AChE; [2]): 106.51 ± 0.07 µM
inhibition at 500 µM (BChE; [1]): 30.1 ± 0.58%

CC(=O)NNC(=O)Cc1c[nH]c2ccccc12 [Compound 5a, N'-acetyl-2-(1H-indol-3-yl)acetohydrazide]
inhibition at 500 µM (AChE; [1]): 60.52 ± 0.25%
IC50 (AChE; [2]): 298.61 ± 0.15 µM
inhibition at 500 µM (BChE; [1]): 90.81 ± 0.69%
IC50 (BChE; [3]): 55.21 ± 0.12 µM

O=C(Cc1c[nH]c2ccccc12)NNC(=O)C(F)(F)F [Compound 5b, N'-(2-(1H-indol-3-yl)acetyl)-2,2,2-trifluoroacetohydrazide]
inhibition at 500 µM (AChE; [1]): 75.22 ± 0.41%
IC50 (AChE; [2]): 152.31 ± 0.07 µM
inhibition at 500 µM (BChE; [1]): 86.64 ± 0.24%
IC50 (BChE; [3]): 68.91 ± 0.07 µM

O=C(Cc1c[nH]c2ccccc12)NNC(=O)Oc1ccccc1 [Compound 5c, Phenyl 2-(2-(1H-indol-3-yl)acetyl)hydrazinecarboxylate]
inhibitory activity against AChE (in words) (AChE): weak
inhibition at 500 µM (AChE): 55.91 ± 0.33%
inhibitory activity against BChE (in words) (BChE): weak
inhibition at 500 µM (BChE): 39.29 ± 0.25%

Cc1ccc(S(=O)(=O)NNC(=O)Cc2c[nH]c3ccccc23)cc1 [Compound 6a, N'-(2-(1H-Indol-3-yl)acetyl)-4-methylbenzenesulfonohydrazide]
inhibition at 500 µM (AChE; [1]): 78.11 ± 0.36%
IC50 (AChE; [2]): 121.4 ± 0.16 µM
inhibition at 500 µM (BChE; [1]): 72.52 ± 0.33%
IC50 (BChE; [3]): 101.2 ± 0.16 µM

O=C(Cc1c[nH]c2ccccc12)NNS(=O)(=O)c1ccccc1[N+](=O)[O-] [Compound 6b, N'-(2-(1H-Indol-3-yl)acetyl)-2-nitrobenzenesulfonohydrazide]
inhibitory activity against AChE (in words) (AChE): weak
inhibition at 500 µM (AChE; [1]): 46.41 ± 0.21%
inhibitory activity against BChE (in words) (BChE): weak
inhibition at 500 µM (BChE; [1]): 42.61 ± 0.42%

O=C(Cc1c[nH]c2ccccc12)NNS(=O)(=O)c1cccc([N+](=O)[O-])c1 [Compound 6c, N'-(2-(1H-Indol-3-yl)acetyl)-3-nitrobenzenesulfonohydrazide]
inhibitory activity against AChE (in words) (AChE): weak
inhibition at 500 µM (AChE; [1]): 56.21 ± 0.25%
inhibition at 500 µM (BChE; [1]): 81.24 ± 0.52%
IC50 (BChE; [3]): 78.51 ± 0.21 µM

O=C(Cc1c[nH]c2ccccc12)NNS(=O)(=O)c1ccc([N+](=O)[O-])cc1 [Compound 6d, N'-(2-(1H-Indol-3-yl)acetyl)-4-nitrobenzenesulfonohydrazide]
inhibitory activity against AChE (in words) (AChE): weak
inhibition at 500 µM (AChE; [1]): 58.62 ± 0.52%
inhibition at 500 µM (BChE; [1]): 63.69 ± 0.61%
IC50 (BChE; [3]): < 400 µM

O=C(Cc1c[nH]c2ccccc12)NNS(=O)(=O)c1ccc(Br)cc1 [Compound 6e, N'-(2-(1H-indol-3-yl)acetyl)-4-bromobenzenesulfonohydrazide]
inhibition at 500 µM (AChE; [1]): 90.78 ± 0.32%
IC50 (AChE; [2]): 68.52 ± 0.04 µM
inhibition at 500 µM (BChE; [1]): 81.02 ± 0.14%
IC50 (BChE; [3]): 73.52 ± 0.04 µM
